Measured values as given in patent US20100324075A1, “THERAPEUTIC USE OF CARBOXYL ESTER LIPASE INHIBITORS” (UNIVERSITY OF CINCINNATI, priority 2007, published 2010).

Key:
CEL [1] = target: T1, CEL (Mus musculus, UniProt Q64285); assay: Daily fecal cholesterol (neutral sterol) excretion in mice fed CEL inhibitor in chow (reverse cholesterol transport); assay type: in vivo; conditions: C57BL/6 mice
T1 construct: from tissue; host or cells: whole animal: wild-type C57BL/6 mice (CEL made by pancreas and liver)
T1 sequence (Q64285 21-599): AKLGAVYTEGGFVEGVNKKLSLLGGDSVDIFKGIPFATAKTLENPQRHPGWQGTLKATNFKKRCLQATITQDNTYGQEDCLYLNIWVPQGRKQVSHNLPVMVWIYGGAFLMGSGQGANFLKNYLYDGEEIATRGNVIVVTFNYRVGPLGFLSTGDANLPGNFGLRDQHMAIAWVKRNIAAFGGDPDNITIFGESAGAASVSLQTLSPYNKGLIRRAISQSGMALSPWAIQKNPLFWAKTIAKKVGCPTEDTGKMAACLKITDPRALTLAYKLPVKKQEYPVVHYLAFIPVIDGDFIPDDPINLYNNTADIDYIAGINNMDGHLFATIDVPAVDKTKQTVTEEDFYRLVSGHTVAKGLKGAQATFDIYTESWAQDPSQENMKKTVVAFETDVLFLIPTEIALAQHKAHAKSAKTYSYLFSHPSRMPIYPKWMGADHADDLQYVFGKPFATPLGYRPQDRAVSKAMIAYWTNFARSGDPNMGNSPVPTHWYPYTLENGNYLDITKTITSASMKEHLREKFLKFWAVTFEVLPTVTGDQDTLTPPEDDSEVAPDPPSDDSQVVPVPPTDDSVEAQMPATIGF
Procedure: FIG. 8. Excretion of neutral sterol mass is increased by feeding CEL inhibitor (1,5-dimethylhexyl)carbamic acid 4-phenoxyphenyl ester to normal C57BL/6 mice. Inhibitor was mixed with standard rodent chow and fed to mice after baseline excretion was determined. Sterol excretion was again determined after 2 weeks of inhibitor treatment. The change from baseline is plotted for each mouse (n=13).
Animals were individually housed in cages fitted with a wire platform with full access to food and water. After a 1 or 2 day acclimation period, feces were collected for 72 h and sterols were quantitated using a variation of the method described by Post et al. (Post, et al., Increased fecal bile acid excretion in transgenic mice with elevated expression of human phospholipid transfer protein. Arterioscler. Thromb. Vasc. Biol. 23:892-97 (2003)). After being dried and weighed, fecal material was ground to a fine powder. 5α-cholestane (40 μg) and [24-^14C]-taurocholic acid (0.02 μCi) were added to 0.5 g of the ground fecal material as internal standards for extraction efficiency of neutral and acidic sterols, respectively. The fecal material plus standards were suspended in 10 volumes of alkaline methanol (0.2 M NaOH in 80% methanol), incubated at 80° C. for 2 hr, and neutral sterols were separated by 3 extractions with equal volumes of petroleum ether. The combined organic fractions were evaporated under nitrogen, resuspended in hexane, and a portion was used to measure neutral sterols by gas chromatography (Shimadzu Scientific Instruments). Data reported represent the sum of areas under the curves for cholesterol, coprostanol, and lathosterol. The aqueous residue from above was filtered, washed, dried, resuspended in water, and applied to prewashed C18 Bond Elut columns (Varian Inc., Palo Alto, Calif.). Bile acids were eluted from the columns with methanol, concentrated and quantitated by colorimetric assay (Trinity Biotech). To measure fecal sterol esters, ground fecal samples were resuspended in water, extracted with petroleum ether, concentrated, resolved by TLC as above and visualized at 80° C. after staining with 10% phosphomolybdic acid in ethanol, or bands were scraped and quantitated by scintillation spectrometry.
The effect of (1,5-dimethylhexyl)carbamic acid 4-phenoxyphenyl ester on cholesterol disposal has been measured in C57BL/6 mice. Baseline daily fecal cholesterol disposal by chow-fed mice was measured over 3 days using established methods. Thereafter, the same mice were fed a chow diet to which had been added 1 milligram of (1,5-dimethylhexyl)carbamic acid 4-phenoxyphenyl ester per gram of food. The average body weight of the mice was 24 grams. Mice of this size are known to eat between 3.5 and 4 grams of chow per day. Thus, the amount of inhibitor consumed was between 3.5 and 4.0 milligrams per mouse per day or between 146 and 167 milligrams per kilogram of bodyweight. After eating inhibitor-containing diet for 2 weeks, daily fecal cholesterol excretion was again measured over 3 days. […] The average excretion at baseline was 48.9±11.3 micrograms per day per gram bodyweight (range 28.6 to 71.8), which increased to 62.1±10.4 micrograms per day per gram bodyweight (range 45.3 to 89.1) after treatment. The average change per mouse was +33.0% (range −19.3 to +95.4), with 10 of the 13 mice responding positively, 1 showing no change and 2 responding negatively).

CEL [2] = target: T2, CEL (Homo sapiens, UniProt P19835); assay: Serum HDL, LDL and VLDL cholesterol in a patient with suboptimal HDL given a CEL inhibitor; assay type: in vivo; conditions: daily oral dose 1 mg per kg, two weeks
T2 construct: The patient takes a daily oral dose of 1 mg per kg body of weight; from tissue; host or cells: whole organism: patient (endogenous enzyme)
T2 sequence (P19835 21-753): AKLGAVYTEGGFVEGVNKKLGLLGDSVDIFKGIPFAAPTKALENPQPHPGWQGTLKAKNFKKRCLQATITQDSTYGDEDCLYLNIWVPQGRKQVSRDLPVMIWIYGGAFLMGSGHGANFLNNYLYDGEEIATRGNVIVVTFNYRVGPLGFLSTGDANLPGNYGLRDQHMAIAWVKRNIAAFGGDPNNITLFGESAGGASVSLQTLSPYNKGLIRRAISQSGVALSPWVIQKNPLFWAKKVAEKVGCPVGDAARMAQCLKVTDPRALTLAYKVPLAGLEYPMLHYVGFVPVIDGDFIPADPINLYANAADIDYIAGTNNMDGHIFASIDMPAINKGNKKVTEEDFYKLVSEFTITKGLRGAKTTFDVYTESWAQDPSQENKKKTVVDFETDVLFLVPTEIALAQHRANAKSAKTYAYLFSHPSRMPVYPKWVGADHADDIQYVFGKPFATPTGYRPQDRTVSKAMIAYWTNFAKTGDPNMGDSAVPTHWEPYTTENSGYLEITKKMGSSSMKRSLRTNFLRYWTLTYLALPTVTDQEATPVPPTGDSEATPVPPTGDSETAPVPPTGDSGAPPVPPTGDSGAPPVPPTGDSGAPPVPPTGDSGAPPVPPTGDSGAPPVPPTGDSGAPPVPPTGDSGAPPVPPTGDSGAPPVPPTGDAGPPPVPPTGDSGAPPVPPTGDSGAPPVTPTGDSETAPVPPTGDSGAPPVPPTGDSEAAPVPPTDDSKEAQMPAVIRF
Procedure: (§1) A patient with suboptimal HDL cholesterol level, which is not the result of a known genetic or other predisposing condition, is prescribed (1,5-dimethylhexyl)carbamic acid 4-phenoxyphenyl ester to raise serum HDL levels. The patient takes a daily oral dose of 1 mg per kg body of weight for a period of two weeks, after which serum cholesterol in HDL, LDL, and VLDL is again measured. It is determined that HDL cholesterol has increased by 15-20%, that the ratio of HDL:LDL has increased, and that VLDL is decreased, such that risk for cardiovascular disease is reduced.
as §1, with “4-methyl-1-piperidinecarboxylic” for “(1,5-dimethylhexyl)carbamic”

Row | Structure (SMILES) | average change per mouse in cholesterol excretion from baseline (CEL [1]; 1 mg/g chow, 2 weeks, n=13, range −19.3 to +95.4) | mice responding positively (increased cholesterol excretion) (CEL [1]; 1 mg/g chow, 2 weeks, 1 no change, 2 negative) | cholesterol excretion, paired data analysis vs baseline (CEL [1]; 1 mg/g chow, 2 weeks, P=0.01) | average increase in cholesterol excretion over baseline, of those that responded positively (CEL [1]; 1 mg/g chow, 2 weeks, positive responders only) [%] | average fecal cholesterol excretion after treatment (CEL [1]; 1 milligram inhibitor per gram chow for 2 weeks, n=13, baseline 48.9±11.3) | VLDL (CEL [2]) | increase in HDL cholesterol (CEL [2]) | ratio of HDL:LDL (CEL [2])
1 | CC(C)CCCC(C)NC(=O)Oc1ccc(Oc2ccccc2)cc1 (centres unmarked) [(1,5-dimethylhexyl)carbamic acid 4-phenoxyphenyl ester] | +33.0% | 10 of the 13 | significantly increased | 46.7 | 62.1±10.4 micrograms per day per gram bodyweight | decreased | 15-20% | increased
2 | CC1CCN(C(=O)Oc2ccc(Oc3ccccc3)cc2)CC1 [4-methyl-1-piperidinecarboxylic acid 4-phenoxyphenyl ester] | – | – | – | – | – | decreased | 15-20% | increased
